Assay results reported in US20230100838A1 (Revolution Medicines, Inc., priority 2019, published 2023).

Columns and labels:
Type in all cases: binding
K-Ras G12S = K-Ras G12S (Homo sapiens, UniProt P01116, G12S); test: K-Ras G12S cross-linking assay (comparable procedure, conjugate formation, TOF mass spectrometry)
Method: Protocol: K-Ras G12D(GDP) Cross-Linking Assay
Note: while the following protocol outlines the procedure for K-Ras G12D(GDP), a person of skill in the art may substitute other Ras proteins, and may also substitute a non-hydrolyzable GTP analog for GDP to study GTP bound Ras protein.
GDP-loaded K-Ras (1-169) G12D, C51S, C80L, C118S and GDP-loaded K-Ras (1-169) C51S, C80L, C118S were adjusted to 50 μM in K-Ras assay buffer (12.5 mM HEPES, 75 mM NaCl and 1 mM MgCl2 at pH 7.4). A 5 μL aliquot of each protein solution was added to each well of a 96-well microplate containing 40 μL of assay buffer. Initial compound stocks were prepared in DMSO at 100 times their final assay concentration. Compounds were then diluted 10-fold into K-Ras assay buffer to 10 times their final concentration. A 5 μL aliquot of each diluted compound solution was added to each protein solution in the 96-well microplate to initiate the reaction, which then proceeded at room temperature. Typical final compound concentrations were 2, 10, and 25 μM. At each time point, the reactions were analyzed immediately or quenched with 5 μL of a 5% formic acid solution and kept at 4° C. until analysis. Typical assay endpoints were 1 and 24 h.
Data collection took place on an Agilent 6230 TOF Mass Spectrometer. Complete reactions were injected onto a C4 reverse-phase column to separate protein from buffer components prior to entering the mass spectrometer. The proteins were eluted from the column by increasing acetonitrile fraction in the mobile phase and fed directly into the mass analyzer. Initial analysis of raw data took place in Agilent MassHunter BioConfirm software and consisted of deconvolution of multiple protein charge states with the maximum entropy algorithm, with a mass step of 1 Da. The heights of all deconvoluted protein masses were exported for further data analysis. The percent modification of each protein was then determined by calculating the peak height of the covalently modified K-Ras species as a percentage of the sum total of K-Ras protein peak height.

[1] = target: T1, GDP-loaded K-Ras (1-169) G12D, C51S, C80L, C118S (Homo sapiens, UniProt P01116, C118S/C51S/C80L/G12D); test: K-Ras G12D(GDP) cross-linking assay (conjugate formation, TOF mass spectrometry); details: percent covalently modified K-Ras by MS, room temperature, typical compound conc. 2, 10, 25 μM, endpoints 1 and 24 h
T1 construct: GDP-loaded K-Ras (1-169) G12D, C51S, C80L, C118S
Summary of the method: (§1)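 5 μM protein (final, from 50 μM) in HEPES/NaCl/MgCl2 buffer pH 7.4 with compound typically at 2, 10 and 25 μM, room temperature, 1 and 24 h endpoints; formic acid quench. Intact-protein LC–TOF MS; percent modification is covalent adduct peak height over total K-Ras peak height.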

[2] = target: T2, GDP-loaded K-Ras (1-169) C51S, C80L, C118S (Homo sapiens, UniProt P01116, C118S/C51S/C80L); test: K-Ras WT (GDP) cross-linking assay (conjugate formation, TOF mass spectrometry); details: percent covalently modified K-Ras by MS, room temperature, typical compound conc. 2, 10, 25 μM, endpoints 1 and 24 h
T2 construct: GDP-loaded K-Ras (1-169) C51S, C80L, C118S
Summary of the method: as §1

[3] = Table 5, percent covalently modified K-Ras by MS
[4] = Table 4, percent covalently modified K-Ras by MS

| Structure (SMILES) | G12S x-linking (%) (K-Ras G12S; [3]) | G12D x-linking (%) ([1]; Table 5) | WT x-linking (%) ([2]; Table 5) | G12S x-linking (%) (K-Ras G12S; [4]) | G12D x-linking (%) ([1]; Table 4) | WT x-linking (%) ([2]; Table 4) |
| --- | --- | --- | --- | --- | --- | --- |
| Cc1cccc2cccc(N3CCc4c(nc(OC[C@@H]5CCCN5C)nc4N4CCN(C(=O)[C@@H]5CN5)[C@@H](CC#N)C4)C3)c12 [Example 64, 2-((S)-1-((S)-aziridine-2-carbonyl)-4-(7-(8-methylnaphthalen-1-yl)-2-(((S)-1-methylpyrrolidin-2-yl)methoxy)-5,6,7,8-tetrahydropyrido[3,4-d]pyrimidin-4-yl)piperazin-2-yl)acetonitrile] | + (0 < x ≤ 10) | + (0 < x ≤ 20) | + (0 < x ≤ 20) |  |  |  |
| CC(=O)N1CC1C(=O)N(C)C1CCN(c2nc(OC[C@@H]3CCCN3C)nc3c2CCN(c2cccc4cccc(C)c24)C3)CC1 (stereo partly drawn) [Example 43, 1-acetyl-N-methyl-N-(1-(7-(8-methylnaphthalen-1-yl)-2-(((S)-1-methylpyrrolidin-2-yl)methoxy)-5,6,7,8-tetrahydropyrido[3,4-d]pyrimidin-4-yl)piperidin-4-yl)aziridine-2-carboxamide] |  |  |  | + (0 < x ≤ 10) | + (0 < x ≤ 20) | + (0 < x ≤ 20) |
| Cc1cccc2cccc(N3CCc4c(nc(OC[C@@H]5CCCN5C)nc4N4CCC(N=C=NCc5ccc(Cl)cc5)CC4)C3)c12 [Example 49, N-(4-chlorobenzyl)-N-(1-(7-(8-methylnaphthalen-1-yl)-2-(((S)-1-methylpyrrolidin-2-yl)methoxy)-5,6,7,8-tetrahydropyrido[3,4-d]pyrimidin-4-yl)piperidin-4-yl)methanediimine] |  |  |  | + (0 < x ≤ 10) | + (0 < x ≤ 20) | + (0 < x ≤ 20) |
| COCCCN=C=NC1CCN(c2nc(OC[C@@H]3CCCN3C)nc3c2CCN(c2cccc4cccc(C)c24)C3)CC1 [Example 25, N-(3-methoxypropyl)-N-(1-(7-(8-methylnaphthalen-1-yl)-2-(((S)-1-methylpyrrolidin-2-yl)methoxy)-5,6,7,8-tetrahydropyrido[3,4-d]pyrimidin-4-yl)piperidin-4-yl)methanediimine] |  |  |  | ++ (10 < x ≤ 100) | +++ (40 < x ≤ 100) | ++ (20 < x ≤ 100) |
| Cc1ccnc(C(C)C)c1-n1c(=O)nc(N2CCN(C(=O)[C@@H]3CN3)C[C@@H]2C)c2cc(F)c(-c3c(O)cccc3F)nc21 [Example 66, 4-((S)-4-((S)-aziridine-2-carbonyl)-2-methylpiperazin-1-yl)-6-fluoro-7-(2-fluoro-6-hydroxyphenyl)-1-(2-isopropyl-4-methylpyridin-3-yl)pyrido[2,3-d]pyrimidin-2(1H)-one] | + (0 < x ≤ 10) | + (0 < x ≤ 20) | + (0 < x ≤ 20) |  |  |  |
| COCCN=C=N[C@@H]1CCN(c2nc(OC[C@@H]3CCCN3C)nc3c2CCN(c2cccc4cccc(C)c24)C3)C1 [Example 73, N-(2-methoxyethyl)-N—((R)-1-(7-(8-methylnaphthalen-1-yl)-2-(((S)-1-methylpyrrolidin-2-yl)methoxy)-5,6,7,8-tetrahydropyrido[3,4-d]pyrimidin-4-yl)pyrrolidin-3-yl)methanediimine] | ++ (10 < x ≤ 100) | +++ (40 < x ≤ 100) | ++ (20 < x ≤ 100) |  |  |  |
| O=C(NCCCl)NC1CCN(c2ncnc3c(F)c(-c4ccccc4F)c(Cl)cc23)CC1 [Example 10, 1-(1-(6-chloro-8-fluoro-7-(2-fluorophenyl)quinazolin-4-yl)piperidin-4-yl)-3-(2-chloroethyl)urea] |  |  |  | + (0 < x ≤ 10) | + (0 < x ≤ 20) | + (0 < x ≤ 20) |

Second part, the compound after the results:

| G12S x-linking (%) (K-Ras G12S; [3]) | G12D x-linking (%) ([1]; Table 5) | WT x-linking (%) ([2]; Table 5) | G12S x-linking (%) (K-Ras G12S; [4]) | G12D x-linking (%) ([1]; Table 4) | WT x-linking (%) ([2]; Table 4) | Structure (SMILES) |
| --- | --- | --- | --- | --- | --- | --- |
|  |  |  | + (0 < x ≤ 10) | + (0 < x ≤ 20) | + (0 < x ≤ 20) | Cc1cccc2cccc(N3CCc4c(nc(OC[C@@H]5CCCN5C)nc4N4CCC(N=C=Nc5ccccc5)CC4)C3)c12 [Example 48, N-(1-(7-(8-methylnaphthalen-1-yl)-2-(((S)-1-methylpyrrolidin-2-yl)methoxy)-5,6,7,8-tetrahydropyrido[3,4-d]pyrimidin-4-yl)piperidin-4-yl)-N-phenylmethanediimine] |
|  |  |  | ++ (10 < x ≤ 100) | +++ (40 < x ≤ 100) | ++ (20 < x ≤ 100) | CCCN=C=NCCN(C)c1nc(OC[C@@H]2CCCN2C)nc2c1CCN(c1cccc3cccc(C)c13)C2 [Example 26, N-methyl-7-(8-methylnaphthalen-1-yl)-2-(((S)-1-methylpyrrolidin-2-yl)methoxy)-N-(2-(((propylimino)methylene)amino)ethyl)-5,6,7,8-tetrahydropyrido[3,4-d]pyrimidin-4-amine] |
|  |  |  | ++ (10 < x ≤ 100) | +++ (40 < x ≤ 100) | ++ (20 < x ≤ 100) | CN=C=NC1CCN(c2nc(OC[C@@H]3CCCN3C)nc3c2CCN(c2cccc4cccc(C)c24)C3)CC1 [Example 21, N-methyl-N-(1-(7-(8-methylnaphthalen-1-yl)-2-(((S)-1-methylpyrrolidin-2-yl)methoxy)-5,6,7,8-tetrahydropyrido[3,4-d]pyrimidin-4-yl)piperidin-4-yl)methanediimine] |
| ++ (10 < x ≤ 100) | ++ (20 < x ≤ 40) | ++ (20 < x ≤ 100) |  |  |  | CCCN=C=NCC1CCN(c2nc(=O)n(-c3c(C)ccnc3C(C)C)c3nc(-c4ccccc4F)c(F)cc23)CC1 [Example 71, 6-fluoro-7-(2-fluorophenyl)-1-(2-isopropyl-4-methylpyridin-3-yl)-4-(4-((((propylimino)methylene)amino)methyl)piperidin-1-yl)pyrido[2,3-d]pyrimidin-2(1H)-one] |
| + (0 < x ≤ 10) | ++ (20 < x ≤ 40) | + (0 < x ≤ 20) |  |  |  | CSCCCN=C=NC1CCN(c2nc(OC[C@@H]3CCCN3C)nc3c2CCN(c2cccc4cccc(C)c24)C3)CC1 [Example 93, N-(1-(7-(8-methylnaphthalen-1-yl)-2-(((S)-1-methylpyrrolidin-2-yl)methoxy)-5,6,7,8-tetrahydropyrido[3,4-d]pyrimidin-4-yl)piperidin-4-yl)-N-(3-(methylthio)propyl)methanediimine] |
|  |  |  | ++ (10 < x ≤ 100) | +++ (40 < x ≤ 100) | ++ (20 < x ≤ 100) | Cc1cccc2cccc(N3CCc4c(nc(OC[C@@H]5CCCN5C)nc4N(C)CCCN=C=NCc4ccccc4)C3)c12 [Example 31, N-(3-(((benzylimino)methylene)amino)propyl)-N-methyl-7-(8-methylnaphthalen-1-yl)-2-(((S)-1-methylpyrrolidin-2-yl)methoxy)-5,6,7,8-tetrahydropyrido[3,4-d]pyrimidin-4-amine] |
| + (0 < x ≤ 10) | + (0 < x ≤ 20) | + (0 < x ≤ 20) |  |  |  | Cc1ccnc(C(C)C)c1-n1c(=O)nc(N2CCC(CN=C=NCc3ccccc3)CC2)c2cc(F)c(-c3ccccc3F)nc21 [Example 69, 4-(4-((((benzylimino)methylene)amino)methyl)piperidin-1-yl)-6-fluoro-7-(2-fluorophenyl)-1-(2-isopropyl-4-methylpyridin-3-yl)pyrido[2,3-d]pyrimidin-2(1H)-one] |
| + (0 < x ≤ 10) | + (0 < x ≤ 20) | + (0 < x ≤ 20) |  |  |  | Cc1cccc2cccc(N3CCc4c(nc(OC[C@@H]5CCCN5C)nc4N4CCC(N=C=NCCN(C)c5ccccc5)CC4)C3)c12 [Example 89, N-methyl-N-(2-((((1-(7-(8-methylnaphthalen-1-yl)-2-(((S)-1-methylpyrrolidin-2-yl)methoxy)-5,6,7,8-tetrahydropyrido[3,4-d]pyrimidin-4-yl)piperidin-4-yl)imino)methylene)amino)ethyl)aniline] |
